Data as given in patent EP0719251B1, “BICYCLO (2.2.2) OCTANE DERIVATIVES CHOLECYSTOKININ AND/OR GASTRIN ANTAGONISTS” (JAMES BLACK FOUNDATION LIMITED, priority 1993, dated 1995).

Assays:
CCKB receptor = target: T1, CCKB receptor (Mus musculus, UniProt P56481); assay: radioligand binding assay at the CCKB receptor in mouse cortical membranes; conditions: [125I]-CCK8S 200pM, 150 min at 21 ± 3°C; for Ki: read-out: CCKB pKi (converted)
T1 construct: The whole brains from male mice (CD1 22-25g; Charles River) were removed; from tissue; host or cells: cerebral cortex membranes of male CD1 mice
T1 sequence (P56481 1-453): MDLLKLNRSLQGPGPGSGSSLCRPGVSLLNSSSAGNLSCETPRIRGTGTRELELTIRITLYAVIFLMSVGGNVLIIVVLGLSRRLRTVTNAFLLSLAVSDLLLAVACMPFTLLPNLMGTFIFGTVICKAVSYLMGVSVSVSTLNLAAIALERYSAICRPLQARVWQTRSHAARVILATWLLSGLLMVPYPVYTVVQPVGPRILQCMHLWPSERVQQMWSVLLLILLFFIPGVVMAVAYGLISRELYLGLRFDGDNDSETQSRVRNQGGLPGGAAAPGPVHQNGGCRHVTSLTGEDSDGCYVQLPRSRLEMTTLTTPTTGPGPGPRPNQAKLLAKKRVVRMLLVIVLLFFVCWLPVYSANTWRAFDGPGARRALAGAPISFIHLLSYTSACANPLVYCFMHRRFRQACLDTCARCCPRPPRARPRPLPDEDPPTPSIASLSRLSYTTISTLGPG
Method: The compounds of the examples were tested for binding at the CCKB receptor in mouse cortical membranes by means of a radioligand binding assay. The procedure was as follows:
The whole brains from male mice (CD1 22-25g; Charles River) were removed and placed in ice-cold buffer (pH7.2 @ 21 ± 3°C) of the following composition (mM); 10 HEPES, 130 NaCl, 4.7 KCl, 5 MgCl2, 1 EDTA and containing 0.25g.l^-1 bacitracin. The cortex was dissected, weighed and homogenised in 40ml ice-cold buffer using a Teflon-in-glass homogeniser. The homogenate was centrifuged at 39,800g for 20 min at 4°C, the supernatant discarded and the pellet resuspended by homogenisation in fresh buffer. The homogenate was recentrifuged (39,800g; 20 min @ 4°C) and the final pellet was resuspended in HEPES buffer to give a tissue concentration of 2mg.ml^-1(original wet weight).
The assay was terminated by rapid filtration through pre-soaked Whatman GF/B filters using a Brandell Cell harvester. The filters were washed (3 x 3ml) with ice-cold 50mM Tris-HCl (pH7.4 @ 4°C) and bound radioactivity determined by counting (1 min.) in a gamma-counter.

gastrin = target: T2, gastrin (Rattus norvegicus, UniProt P30553); assay: gastrin antagonist activity in an immature rat stomach assay; conditions: isolated immature rat stomach, cumulative pentagastrin dose-response curves, acid secretion; for Kb: read-out: Gastrin pKB (converted)
T2 construct: The stomach was excised and flushed with ca. 1 ml of unbuffered physiological saline solution; from tissue; host or cells: isolated whole stomach of immature rats (33-50 g, ca. 21 days old)
T2 sequence (P30553 1-452): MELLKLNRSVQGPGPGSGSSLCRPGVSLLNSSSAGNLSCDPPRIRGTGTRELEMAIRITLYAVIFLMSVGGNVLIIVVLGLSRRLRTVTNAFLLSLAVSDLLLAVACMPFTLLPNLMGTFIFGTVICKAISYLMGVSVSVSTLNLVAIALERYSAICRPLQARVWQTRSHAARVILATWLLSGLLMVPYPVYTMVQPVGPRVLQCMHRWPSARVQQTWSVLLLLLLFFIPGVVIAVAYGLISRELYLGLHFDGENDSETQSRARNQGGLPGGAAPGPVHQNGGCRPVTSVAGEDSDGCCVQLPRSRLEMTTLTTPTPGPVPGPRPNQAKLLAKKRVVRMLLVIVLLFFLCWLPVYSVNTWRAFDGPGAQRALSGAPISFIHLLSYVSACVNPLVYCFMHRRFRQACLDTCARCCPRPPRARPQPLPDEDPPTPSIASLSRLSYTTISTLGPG
Method: The compounds of the examples were also tested for gastrin antagonist activity in an immature rat stomach assay. The procedure was as follows: The oesophagus of immature rats (33-50 g, ca. 21 days old) was ligated at the level of the cardiac sphincter and the duodenal sphincter was cannulated. The stomach was excised and flushed with ca. 1 ml of unbuffered physiological saline solution. The fundus was punctured and cannulated. A further 4-5 ml of unbuffered solution was flushed through the stomach to ensure the preparation was not leaking. […] The stomach was continuously perfused at a rate of 1 ml min^-1 with unbuffered solution gassed with 100% O2 with the perfusate passing over an internally referenced pH-electrode fixed 12 cm above the stomach. After 120 min of stabilisation the drugs were added directly to the serosal solution in the organ bath and after a further 60 min cumulative pentagastrin dose-response curves were started.

CCKA = target: T3, CCKA (Cavia porcellus, UniProt Q63931); assay: CCKA binding assay in guinea-pig pancreas membranes; conditions: [125I]-CCK8(S) 200pM; for CCKA pKi: containing 0.375 µM PD134,308; for Ki: containing 0.375 µM PD134,308, read-out: CCKA pKi (converted)
T3 construct: The pancreatata were removed from male guinea-pigs (200-300g; Dunkin Hartley); from tissue; host or cells: pancreas membranes of male Dunkin Hartley guinea-pigs
T3 sequence (Q63931 1-430): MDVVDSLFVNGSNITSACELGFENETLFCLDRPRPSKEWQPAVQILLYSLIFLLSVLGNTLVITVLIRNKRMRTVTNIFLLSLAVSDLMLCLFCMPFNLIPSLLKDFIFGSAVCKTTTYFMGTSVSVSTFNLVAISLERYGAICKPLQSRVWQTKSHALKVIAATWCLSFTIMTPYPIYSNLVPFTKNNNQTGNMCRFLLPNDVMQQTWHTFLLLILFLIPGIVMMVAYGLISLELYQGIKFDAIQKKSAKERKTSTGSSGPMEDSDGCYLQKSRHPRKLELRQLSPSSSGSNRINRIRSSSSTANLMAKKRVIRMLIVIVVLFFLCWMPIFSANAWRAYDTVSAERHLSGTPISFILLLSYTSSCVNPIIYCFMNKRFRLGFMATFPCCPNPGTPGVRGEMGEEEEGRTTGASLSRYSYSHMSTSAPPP
Method: The compounds of the examples were also tested in a CCKÅ binding assay as follows:
The pancreatata were removed from male guinea-pigs (200-300g; Dunkin Hartley) and placed in ice-cold HEPES buffer (pH 7.2 @ 21 ± 3° ). The pancreatata were homogenised in 40 ml ice-cold HEPES buffer using a polytron (Brinkmann, PT10, setting 10) 4 x 1 second.
The homogenate was centrifuged at 39,800g for 15 min at 4°. The supernatant was discarded and the pellet re-suspended using a Teflon-in-glass homogeniser in 20 volumes of fresh buffer and recentrifuged as above. The final pellet was re-suspended using a Teflon-in-glass homogeniser to a tissue concentration of 1 mg.ml^-1 (original wet weight), and filtered through 500 µm pore-size Nytex mesh.
The membranes (400µl; containing 0.375 µM PD134,308) are incubated for 150 minutes at 21 ± 3° in a final volume of 0.5ml with HEPES buffer containing [^125I]-CCK8(S) (50µl; 200pM) and competing compound. Total and non-specific binding of [^125I]-CCK8 (S) are defined using 50µl of buffer and 50µl of 100nM L-364,718 respectively. The assay is terminated by rapid filtration through pre-soaked Whatman GF/B filters using a Brandell Cell Harvester. The filters were washed (3 x 3ml) with ice-cold 50mM Tris HCl (pH 7.4 at 4° ) and bound radioactivity is determined by counting (1 min) in a gamma counter.

CCKB pKi (CCKB receptor) | Gastrin pKB (gastrin; 60 min) | CCKA pKi (CCKA) | Ki (CCKB receptor) | Kb (gastrin) | Ki (CCKA) | Compound
8.6 | 7.9 | 5.7 |  |  |  | cis-7-(1S-(3,5-dicarboxyphenylaminocarbonyl) -2-(2-thiophenyl)-ethylaminocarbonyl) -8-(1-adamantane-methylaminocarbonyl) -2,3,5,6-dibenzobicyclo[2.2.2]octane [Example 6]
 |  |  | 3.98 nM | 79.4 nM | 3160 nM | O=C(O)c1cc(NC(=O)[C@H](Cc2ccccc2)NC(=O)C2C3c4ccccc4C(c4ccccc43)C2C(=O)NCCc2ccccc2)cc(C(=O)O)c1 (stereo partly drawn) [Example 53, cis-7-(1S-(3,5-dicarboxyphenylaminocarbonyl) -2-phenylethylaminocarbonyl) -8-(2-phenylethylaminocarbonyl) -2,3,5,6-dibenzobicyclo[2.2.2]octane]
 |  |  | 10 nM | 126 nM | 2510 nM | O=C(O)c1cc(NC(=O)[C@@H](Cc2ccccc2)NC(=O)C2C3c4ccccc4C(c4ccccc43)C2C(=O)NCC23CC4CC(CC(C4)C2)C3)cc(C(=O)O)c1 (single isomer, unassigned) [Example 3, cis-7-(1R-(3,5-dicarboxyphenylaminocarbonyl) -2-phenylethylaminocarbonyl)-8-(1-adamantanemethylaminocarbonyl) -2,3,5,6-dibenzobicyclo[2.2.2]octane]
 |  |  | 6.31 nM | 10 nM | 794 nM | O=C(O)c1cc(NC(=O)[C@H](Cc2ccccc2F)NC(=O)C2C3c4ccccc4C(c4ccccc43)C2C(=O)NCC23CC4CC(CC(C4)C2)C3)cc(C(=O)O)c1 (single isomer, unassigned) [Example 17, cis-7-(1S-(3,5-dicarboxyphenylaminocarbonyl)-2-(2-fluorophenyl)ethylaminocarbonyl)-8-(1-adamantanemethylaminocarbonyl) -2,3,5,6-dibenzobicyclo[2.2.2]octane]
 |  |  | 100 nM | 63.1 nM | 2000 nM | O=C(O)c1cc(NC(=O)[C@@H](CCc2ccccc2)NC(=O)C2C3c4ccccc4C(c4ccccc43)C2C(=O)NCC23CC4CC(CC(C4)C2)C3)cc(C(=O)O)c1 (stereo partly drawn) [Example 37, cis-7-(1R-(3,5-dicarboxyphenylaminocarbonyl) -3-phenylpropylaminocarbonyl)-8-(1-adamintanemethylaminocarbonyl)-2,3,5,6-dibenzobicyclo[2.2.2] octane]
 |  |  | 50.1 nM | 20 nM | 398 nM | O=C(O)c1cc(NC(=O)[C@H](Cc2ccc(F)cc2)NC(=O)C2C3c4ccccc4C(c4ccccc43)C2C(=O)NCC23CC4CC(CC(C4)C2)C3)cc(C(=O)O)c1 (single isomer, unassigned) [Example 9, cis-7-(1S-(3,5-dicarboxyphenylaminocarbonyl) -2-(4-fluorophenyl)ethylaminocarbonyl)-8-(1-adamantanemethylaminocarbonyl) -2,3,5,6-dibenzobicyclo[2.2.2]octane]
 |  |  | 3.16 nM | 2.51 nM | 1000 nM | O=C(O)c1cc(NC(=O)[C@H](Cc2ccccc2F)NC(=O)C2C3c4ccccc4C(c4ccccc43)C2C(=O)NCC23CC4CC(CC(C4)C2)C3)cc(C(=O)O)c1 (single isomer, unassigned) [Example 16, cis-7-(1S-(3,5-dicarboxyphenylaminocarbonyl)-2-(2-fluorophenyl)-ethylaminocarbonyl)-8-(1-adamantanemethylaminocarbonyl) -2,3,5,6-dibenzobicyclo[2.2.2]octane]
 |  |  | 1.58 nM | 5.01 nM | 2000 nM | O=C(O)c1cc(NC(=O)[C@H](Cc2ccccc2)NC(=O)C2C3c4ccccc4C(c4ccccc43)C2C(=O)NCC23CC4CC(CC(C4)C2)C3)cc(C(=O)O)c1 (single isomer, unassigned) [Example 1, cis-7-(1S-(3,5-dicarboxyphenylamino-carbonyl) -2-phenylethylaminocarbonyl)-8-(1-adamantanemethylamino-carbonyl) -2,3,5,6-dibenzobicyclo[2.2.2] octane]
 |  | 5.6 | 39.8 nM | 63.1 nM |  | O=C(O)c1cc(CNC(=O)[C@H](Cc2ccccc2)NC(=O)C2C3c4ccccc4C(c4ccccc43)C2C(=O)NCC23CC4CC(CC(C4)C2)C3)cc(C(=O)O)c1 (single isomer, unassigned) [Example 62, cis-7-(1S-(3,5-dicarboxyphenylmethylaminocarbonyl)-2-phenylethylaminocarbonyl)-8-(1-adamantanemethyl-aminocarbonyl)-2,3,5,6-dibenzobicyclo[2.2 .2]octane]
 |  |  | 10 nM | 25.1 nM | 398 nM | O=C(O)c1cc(NC(=O)[C@H](Cc2cccc(F)c2)NC(=O)C2C3c4ccccc4C(c4ccccc43)C2C(=O)NCC23CC4CC(CC(C4)C2)C3)cc(C(=O)O)c1 (single isomer, unassigned) [Example 19, cis-7-(1S-(3,5-dicarboxyphenylaminocarbonyl)-2-(3-fluorophenyl)ethylaminocarbonyl)-8-(1-adamantanemethylaminocarbonyl) -2,3,5,6-dibenzobicyclo[2.2.2]octane]
